Assay [1] relates to Argentine ants. The assay is described as follows: Experiment #2: field attraction of ants from nest entrance and nearby trails to a pheromone-sprayed sand patch. Format: in vivo, Linepithema humile. The procedure: Experiment #2 was conducted to observe would synthetic trail pheromone spray deposit attract the ants from a nest entrance and nearby trails? The study was conducted in the biological control grove at the University of California, Riverside, in Apr. 23, 2012. Nest entrances of Argentine ant colonies were located, which had active trails associated with them (one nest entrance per nest). By using the nest entrance and trails associated with the nest entrance, the pheromone assisted technique” was tested to see if it would attract ants from the nest entrance and nearby trails. For the pheromone treatment, two patches were made of sand on both sides of the nest entrance by evenly spreading 52.5 g of sand in a square (20 by 20 cm). The distance between the two patches was about 5 cm. The method and rate of application were identical with those of experiment #1.
Both sand patches were photographed at 1, 2, and 3 min after application of sprays. The study was replicated ten times by using a different nest entrance for each replicate. The numbers of ants on the 20 by 20-cm sand patches were counted at 1, 2, and 3 minute post-treatment using the photographs. The average values were compared between treatment and control with a paired T-test (one-sided, Analytical Software 2008). […]

The test system of assay [2] is Argentine ant populations. Conditions: relatively large quantities, stand-alone treatment, field; cited from earlier work.
Assay [3] relates to Argentine ants. The assay can be described thus: Experiment #1: field attraction of ants from an existing trail to a pheromone-sprayed sand patch. Format: in vivo, Linepithema humile. The procedure:
Experiment #1 was conducted to observe would synthetic trail pheromone spray deposit attract the ants from an existing trail? The study was conducted in the biological control grove at the University of California, Riverside, in April 2012. The site supports a large population of Argentine ants, primarily because of the absence of chemical insecticide use and the existence of honeydew-producing insects in the citrus trees. Five different trails of Argentine ants were located, which were relatively straight and at least 30-cm long, and originating from different nests. By using these trails as “existing trails,” tests were performed to see if the “pheromone assisted technique” would attract ants from the existing trails. For the pheromone treatment, two patches of sand were made, one on each side of the existing trail by evenly spreading 52.5 grams (g) of sand in a square (20 by 20 cm). The distance between two patches was about 5 cm. One patch served as a treatment, and the other one served as a control. For the treatment, 1 mg of the synthetic pheromone compound [(Z)-9-hexadecenal] dissolved in 1 ml of ethyl alcohol was mixed with 500 ml of deionized water. […]
Each sand patch was treated with four sprays (each spray targeting 10 by 10 cm areas on one corner). […] The numbers of ants on the 20 by 20-cm sand patches were counted at 2 and 4 min post-treatment using the photographs. […]

The subject of assay [4] is Argentine ants. The assay is described as follows: Experiment #3: laboratory colony mortality after spray applied away from the ant nest. Format: in vivo, Linepithema humile. Particulars: 0.01% fipronil and/or approx. 12 ng per cm^2 (Z)-9-hexadecenal; 3 ml on 491 cm^2 sand; colony about 731 ants; n=5-6. As for the experimental part: Experiment #3 was conducted to observe would co-application of synthetic trail pheromone improve the efficacy of fipronil insecticide spray applied away from the ant nest? A laboratory study was conducted to determine if the efficacy of an insecticide spray (fipronil) can be improved by adding with a synthetic attractant trail pheromone. Argentine ants were collected from a citrus grove (biological control grove) on the University of California, Riverside, campus. Ant nests were excavated from the ground and transported to a laboratory chamber where they were extracted from the soil. Laboratory stock colonies were maintained in plastic boxes (26.5 by 30 by 10 cm) with the inner sides coated with Teflon™ Fluoropolymer resin, type 30, DuPont Polymers) to prevent ants from escaping. Each colony was provided with two or three artificial nests constructed from plaster-filled petri dishes (9 cm in diameter by 1.5 cm in depth) formed with a 5-cm-diameter by 1-cm-deep cylindrical area in the center of the dish to serve as a nesting space. […]
Three different spray preparations were tested: (a) pheromone+fipronil, (b) fipronil only, and (c) pheromone only. […] The dead ants were removed from the colony box and counted daily. […]

With `CCCCCC/C=C\CCCCCCCC=O` [(Z)-9-hexadecenal], the “number of ants on treated sand patch relative to control patch” value was “more than five times higher” in assay [1] (approx. 12 ng per cm^2, paired T-test P<0.001) and “more than two times higher” in assay [3] (approx. 12 ng per cm^2, paired T-test P=0.033). Moreover, the “average number of ants on the 20 by 20-cm sand patch (mean±SEM)” value in assay [1] (approx. 12 ng per cm^2 on sand, counts at 1, 2 and 3 min post-treatment, 10 replicates, nest entrance and nearby trails) is recorded as 18.1±3.0; in assay [3] (approx. 12 ng per cm^2 on sand, counts at 2 and 4 min post-treatment averaged, 5 replicates, existing trail), 10.4±4.0. Further, in assay [2], the “impact on Argentine ant populations” value is “negligible impact”. For the same molecule, the “cumulative number of dead ants at day 7 post-treatment (mean±SEM)” value in assay [4] worked out at 65.8±11.0.
`N#Cc1nn(-c2c(Cl)cc(C(F)(F)F)cc2Cl)c(N)c1[S+]([O-])C(F)(F)F` (stereo not shown) [fipronil only, fipronil]: the “cumulative number of dead ants at day 7 post-treatment (mean±SEM)” value in assay [4] turned out to be 291±27.1.

Values taken from patent US12171226B2, “Development of pheromone assisted techniques to improve efficacy of insecticide sprays targeting urban pest ant species” (The Regents of the University of California, priority 2012, dated 2024).
